Columns and labels:
B2 bradykinin receptor = target: T1, B2 bradykinin receptor (Homo sapiens, UniProt P30411)
T1 sequence (P30411 whole entry): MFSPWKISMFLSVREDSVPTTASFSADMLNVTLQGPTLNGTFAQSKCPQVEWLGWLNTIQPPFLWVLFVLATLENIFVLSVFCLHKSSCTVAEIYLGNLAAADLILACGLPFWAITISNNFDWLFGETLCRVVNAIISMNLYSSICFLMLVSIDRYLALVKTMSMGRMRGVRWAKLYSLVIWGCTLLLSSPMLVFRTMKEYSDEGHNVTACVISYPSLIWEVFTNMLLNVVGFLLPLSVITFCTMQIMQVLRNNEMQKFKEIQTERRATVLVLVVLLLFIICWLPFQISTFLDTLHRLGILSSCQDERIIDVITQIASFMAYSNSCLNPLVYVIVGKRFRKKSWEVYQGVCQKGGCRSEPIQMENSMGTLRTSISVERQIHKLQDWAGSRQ

[1] = target: Sodium-dependent dopamine transporter (Homo sapiens, UniProt Q01959)
[2] = target: T2, Neuropeptide Y receptor type 1 (Homo sapiens, UniProt P25929)
T2 sequence (P25929 whole entry): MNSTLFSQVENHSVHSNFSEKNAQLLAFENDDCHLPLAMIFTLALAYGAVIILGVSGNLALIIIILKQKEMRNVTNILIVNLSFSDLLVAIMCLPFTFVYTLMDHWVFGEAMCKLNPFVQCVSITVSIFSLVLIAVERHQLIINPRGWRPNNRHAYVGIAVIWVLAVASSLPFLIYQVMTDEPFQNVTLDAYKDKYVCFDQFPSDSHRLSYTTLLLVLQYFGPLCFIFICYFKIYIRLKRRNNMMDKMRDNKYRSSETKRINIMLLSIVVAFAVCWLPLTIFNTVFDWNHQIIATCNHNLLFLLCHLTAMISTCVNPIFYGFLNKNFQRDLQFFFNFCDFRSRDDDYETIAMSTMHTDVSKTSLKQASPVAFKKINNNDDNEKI

Cannabinoid receptor 1 = Cannabinoid receptor 1 (Homo sapiens, UniProt P21554); type: functional, cell-based
[3] = target: T3, Prostaglandin G/H synthase 1 (Rattus norvegicus, UniProt Q63921); type: functional
T3 sequence (Q63921 whole entry): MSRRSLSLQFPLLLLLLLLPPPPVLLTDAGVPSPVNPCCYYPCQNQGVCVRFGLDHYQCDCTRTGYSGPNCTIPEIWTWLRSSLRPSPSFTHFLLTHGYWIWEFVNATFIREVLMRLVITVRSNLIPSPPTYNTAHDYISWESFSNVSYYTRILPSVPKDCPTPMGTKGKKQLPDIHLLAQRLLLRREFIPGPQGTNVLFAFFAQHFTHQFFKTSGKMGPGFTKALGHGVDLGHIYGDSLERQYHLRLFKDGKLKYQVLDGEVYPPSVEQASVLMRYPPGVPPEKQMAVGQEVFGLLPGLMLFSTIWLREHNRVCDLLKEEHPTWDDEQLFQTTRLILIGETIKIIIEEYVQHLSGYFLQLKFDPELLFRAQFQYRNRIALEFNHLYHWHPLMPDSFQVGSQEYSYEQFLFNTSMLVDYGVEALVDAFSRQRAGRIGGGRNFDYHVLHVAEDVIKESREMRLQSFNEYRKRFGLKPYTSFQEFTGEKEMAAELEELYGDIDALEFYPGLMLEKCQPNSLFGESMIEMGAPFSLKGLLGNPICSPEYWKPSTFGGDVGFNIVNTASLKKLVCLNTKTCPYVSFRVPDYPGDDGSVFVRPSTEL

[4] = target: T4, Alpha-2A adrenergic receptor (Homo sapiens, UniProt P08913); type: functional, cell-based
T4 sequence (P08913 whole entry): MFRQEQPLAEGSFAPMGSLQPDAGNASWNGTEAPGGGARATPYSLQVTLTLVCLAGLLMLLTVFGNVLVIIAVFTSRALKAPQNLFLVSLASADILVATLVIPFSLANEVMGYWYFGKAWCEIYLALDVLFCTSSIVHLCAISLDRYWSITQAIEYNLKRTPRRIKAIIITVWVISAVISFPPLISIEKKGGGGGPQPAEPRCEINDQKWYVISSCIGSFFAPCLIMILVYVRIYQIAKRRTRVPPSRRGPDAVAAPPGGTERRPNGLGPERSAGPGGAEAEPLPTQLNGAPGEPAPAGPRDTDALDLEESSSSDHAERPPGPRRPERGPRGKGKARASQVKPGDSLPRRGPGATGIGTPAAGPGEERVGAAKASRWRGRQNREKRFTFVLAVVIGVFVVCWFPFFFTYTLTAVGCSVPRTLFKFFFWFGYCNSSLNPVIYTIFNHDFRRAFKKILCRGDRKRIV

[5] = target: Muscarinic acetylcholine receptor M3 (Homo sapiens, UniProt P20309)
[6] = target: 5-hydroxytryptamine receptor 2A (Homo sapiens, UniProt P28223); type: functional, cell-based
[7] = target: T5, Equilibrative nucleoside transporter 1 (Homo sapiens, UniProt Q99808)
T5 sequence (Q99808 whole entry): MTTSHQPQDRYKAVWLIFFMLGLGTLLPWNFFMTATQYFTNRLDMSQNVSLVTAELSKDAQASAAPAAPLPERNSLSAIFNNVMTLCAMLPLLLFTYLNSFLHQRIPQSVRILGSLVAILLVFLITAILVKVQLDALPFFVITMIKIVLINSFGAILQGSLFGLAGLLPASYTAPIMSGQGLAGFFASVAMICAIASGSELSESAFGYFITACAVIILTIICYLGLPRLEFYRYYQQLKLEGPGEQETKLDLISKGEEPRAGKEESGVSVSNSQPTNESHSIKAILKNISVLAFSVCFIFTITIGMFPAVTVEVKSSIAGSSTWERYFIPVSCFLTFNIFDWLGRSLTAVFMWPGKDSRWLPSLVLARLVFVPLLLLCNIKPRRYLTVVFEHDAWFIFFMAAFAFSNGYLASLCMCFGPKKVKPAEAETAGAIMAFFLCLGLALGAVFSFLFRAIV

Thromboxane A2 receptor = target: T6, Thromboxane A2 receptor (Homo sapiens, UniProt P21731)
T6 sequence (P21731 whole entry): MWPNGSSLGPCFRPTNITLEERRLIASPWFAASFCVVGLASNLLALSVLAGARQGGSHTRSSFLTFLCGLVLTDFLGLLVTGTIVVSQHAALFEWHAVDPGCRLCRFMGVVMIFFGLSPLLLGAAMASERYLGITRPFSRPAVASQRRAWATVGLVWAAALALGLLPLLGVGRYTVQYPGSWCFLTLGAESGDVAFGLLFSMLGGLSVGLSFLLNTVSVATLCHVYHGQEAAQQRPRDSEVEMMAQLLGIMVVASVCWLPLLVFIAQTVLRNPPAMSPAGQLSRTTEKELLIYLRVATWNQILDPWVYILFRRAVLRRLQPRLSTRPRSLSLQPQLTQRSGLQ
Also: assay procedure not described here.

Sodium-dependent dopamine transporter, sequence (Q01959 whole entry): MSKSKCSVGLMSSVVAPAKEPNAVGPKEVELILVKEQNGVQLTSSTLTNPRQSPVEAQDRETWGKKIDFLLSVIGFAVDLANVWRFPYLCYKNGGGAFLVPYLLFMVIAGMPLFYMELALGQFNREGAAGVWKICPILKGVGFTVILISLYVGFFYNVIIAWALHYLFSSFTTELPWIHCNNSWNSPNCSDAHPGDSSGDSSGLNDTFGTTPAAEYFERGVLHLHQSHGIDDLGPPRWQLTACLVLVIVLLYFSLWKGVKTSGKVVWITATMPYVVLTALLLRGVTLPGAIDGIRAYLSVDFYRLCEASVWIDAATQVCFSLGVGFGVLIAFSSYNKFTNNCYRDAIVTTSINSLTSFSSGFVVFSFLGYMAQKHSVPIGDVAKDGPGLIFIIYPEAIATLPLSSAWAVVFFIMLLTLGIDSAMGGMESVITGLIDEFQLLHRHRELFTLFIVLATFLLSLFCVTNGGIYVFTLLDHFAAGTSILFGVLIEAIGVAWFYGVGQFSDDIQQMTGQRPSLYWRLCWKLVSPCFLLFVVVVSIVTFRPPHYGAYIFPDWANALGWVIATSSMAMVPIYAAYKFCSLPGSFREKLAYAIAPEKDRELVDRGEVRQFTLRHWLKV
Muscarinic acetylcholine receptor M3, sequence (P20309 whole entry): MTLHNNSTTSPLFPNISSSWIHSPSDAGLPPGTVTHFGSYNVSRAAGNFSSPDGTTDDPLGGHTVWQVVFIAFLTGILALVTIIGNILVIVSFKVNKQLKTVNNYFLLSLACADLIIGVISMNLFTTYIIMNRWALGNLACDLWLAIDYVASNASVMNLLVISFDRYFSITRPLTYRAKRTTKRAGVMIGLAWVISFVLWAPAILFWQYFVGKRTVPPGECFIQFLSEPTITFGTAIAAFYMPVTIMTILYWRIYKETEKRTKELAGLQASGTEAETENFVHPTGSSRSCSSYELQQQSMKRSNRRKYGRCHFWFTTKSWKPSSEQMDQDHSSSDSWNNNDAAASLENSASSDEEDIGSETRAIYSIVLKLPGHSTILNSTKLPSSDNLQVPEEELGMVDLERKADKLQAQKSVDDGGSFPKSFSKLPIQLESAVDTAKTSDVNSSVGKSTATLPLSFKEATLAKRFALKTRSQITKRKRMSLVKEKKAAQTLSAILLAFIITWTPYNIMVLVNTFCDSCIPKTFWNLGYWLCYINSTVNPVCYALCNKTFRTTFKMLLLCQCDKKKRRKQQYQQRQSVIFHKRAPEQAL
Cannabinoid receptor 1, sequence (P21554 whole entry): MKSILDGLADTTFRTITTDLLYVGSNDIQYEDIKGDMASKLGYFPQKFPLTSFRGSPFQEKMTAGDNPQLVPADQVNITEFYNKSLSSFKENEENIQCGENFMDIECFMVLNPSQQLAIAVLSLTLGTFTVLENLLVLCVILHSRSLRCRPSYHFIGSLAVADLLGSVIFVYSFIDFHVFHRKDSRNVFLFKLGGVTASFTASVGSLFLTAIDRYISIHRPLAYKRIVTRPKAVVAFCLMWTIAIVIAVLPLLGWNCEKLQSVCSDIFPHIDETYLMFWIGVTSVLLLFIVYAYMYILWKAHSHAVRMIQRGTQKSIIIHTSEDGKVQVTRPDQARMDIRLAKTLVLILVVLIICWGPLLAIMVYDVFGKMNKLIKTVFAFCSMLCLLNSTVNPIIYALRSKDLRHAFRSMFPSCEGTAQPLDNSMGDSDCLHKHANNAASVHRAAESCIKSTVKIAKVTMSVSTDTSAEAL
5-hydroxytryptamine receptor 2A, sequence (P28223 whole entry): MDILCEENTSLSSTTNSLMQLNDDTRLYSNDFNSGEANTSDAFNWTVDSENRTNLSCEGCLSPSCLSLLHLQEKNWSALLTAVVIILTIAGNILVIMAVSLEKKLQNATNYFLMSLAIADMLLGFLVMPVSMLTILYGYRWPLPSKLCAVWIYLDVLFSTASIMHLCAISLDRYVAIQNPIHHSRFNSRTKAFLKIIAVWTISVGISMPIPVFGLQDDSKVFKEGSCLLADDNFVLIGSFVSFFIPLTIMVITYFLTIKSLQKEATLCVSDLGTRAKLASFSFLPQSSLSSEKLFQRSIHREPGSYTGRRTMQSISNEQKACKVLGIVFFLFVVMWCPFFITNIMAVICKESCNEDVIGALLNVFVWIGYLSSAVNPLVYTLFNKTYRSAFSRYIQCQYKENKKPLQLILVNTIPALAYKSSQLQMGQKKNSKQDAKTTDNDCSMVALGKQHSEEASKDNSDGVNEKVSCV

CCCCC1(CC)C(=O)NC(=O)NC1=O [BUTETHAL]
AC50 (B2 bradykinin receptor): > 30 µM
AC50 [1]: > 30 µM
AC50 [2]: > 30 µM
AC50 (Cannabinoid receptor 1): > 30 µM
AC50 [3]: > 30 µM
AC50 [4]: > 30 µM
AC50 [5]: > 30 µM
AC50 [6]: > 30 µM
AC50 [7]: > 30 µM

CO[C@@]1(NC(=O)Cc2cccs2)C(=O)N2C(C(=O)O)=C(COC(N)=O)CS[C@@H]21 [CEFOXITIN]
AC50 (B2 bradykinin receptor): > 30 µM
AC50 [1]: > 30 µM
AC50 [2]: > 30 µM
AC50 (Cannabinoid receptor 1): > 30 µM
AC50 [3]: > 30 µM
AC50 [4]: > 30 µM
AC50 [5]: > 30 µM
AC50 [6]: > 30 µM
AC50 [7]: > 30 µM

CCN(CC)CCOC(=O)c1ccc(N)cc1Cl [CHLOROPROCAINE]
AC50 (B2 bradykinin receptor): > 30 µM
AC50 [1]: > 30 µM
AC50 [2]: > 30 µM
AC50 (Cannabinoid receptor 1): > 30 µM
AC50 [3]: > 30 µM
AC50 [4]: > 30 µM
AC50 [5]: 18 µM
AC50 [6]: > 30 µM
AC50 [7]: > 30 µM

COCCOC(=O)C1=C(C)NC(C)=C(C(=O)OC/C=C/c2ccccc2)C1c1cccc([N+](=O)[O-])c1 (configuration not stated) [CILNIDIPINE]
AC50 (B2 bradykinin receptor): > 30 µM
AC50 [1]: > 30 µM
AC50 [2]: > 30 µM
AC50 (Cannabinoid receptor 1): > 30 µM
AC50 [3]: > 30 µM
AC50 [5]: > 30 µM
AC50 [6]: > 30 µM
AC50 (Thromboxane A2 receptor): 21 µM
AC50 [7]: 26 µM

O=C(O)c1ccccc1OP(=O)(O)O [FOSFOSAL]
AC50 (B2 bradykinin receptor): > 30 µM
AC50 [1]: > 30 µM
AC50 [2]: > 30 µM
AC50 (Cannabinoid receptor 1): > 30 µM
AC50 [3]: > 30 µM
AC50 [4]: > 30 µM
AC50 [5]: > 30 µM
AC50 [6]: > 30 µM
AC50 [7]: > 30 µM

C#C[C@]1(O)CC[C@H]2[C@@H]3CCC4=CC(=O)CCC4=C3C=C[C@@]21CC [GESTRINONE]
AC50 (B2 bradykinin receptor): > 30 µM
AC50 [1]: 25 µM
AC50 [2]: > 30 µM
AC50 (Cannabinoid receptor 1): > 30 µM
AC50 [3]: > 30 µM
AC50 [4]: 11 µM
AC50 [5]: > 30 µM
AC50 [6]: > 30 µM
AC50 (Thromboxane A2 receptor): > 30 µM

CCCC[C@H](C)C[C@H](O)/C=C/[C@H]1[C@H](O)CC(=O)[C@@H]1CCCC/C=C/C(=O)O [LIMAPROST]
AC50 (B2 bradykinin receptor): > 30 µM
AC50 [1]: > 30 µM
AC50 [2]: > 30 µM
AC50 (Cannabinoid receptor 1): > 30 µM
AC50 [3]: > 30 µM
AC50 [4]: > 30 µM
AC50 [5]: > 30 µM
AC50 [6]: > 30 µM
AC50 [7]: > 30 µM

Cc1ccc(NC(=O)C2(c3ccc4c(c3)OC(F)(F)O4)CC2)nc1-c1cccc(C(=O)O)c1 [LUMACAFTOR]
AC50 (B2 bradykinin receptor): > 30 µM
AC50 [1]: > 30 µM
AC50 [2]: > 30 µM
AC50 (Cannabinoid receptor 1): > 30 µM
AC50 [3]: > 30 µM
AC50 [4]: > 30 µM
AC50 [5]: > 30 µM
AC50 [6]: > 30 µM
AC50 [7]: > 30 µM

Reference: ChEMBL document CHEMBL5291721, “A preclinical secondary pharmacology resource illuminates target-adverse drug reaction associations of marketed drugs” (Nat Commun, 2023)
